The fraction unbound is free concentration divided by total concentration. Low values mean little free substance, high ones much free substance. In general, IC50 refers to the midpoint of a concentration-inhibition curve.

The values that follow come from patent publication US20240300923A1, “IRAK4 Inhibitors” (ASTRAZENECA AB, priority 2022, published 2024).

The nature of series [1]: Human plasma protein binding, equilibrium dialysis (RED device). The settings on record: for fraction unbound at 18 h, 5 μM: human, plasma, pH 7.4. The class given is in vitro ADME. The text has this: Plasma protein binding may have important implications on the pharmacokinetic behaviour of drugs. This is especially true for highly bound drugs, where the fraction unbound (fu) drug in plasma is an important parameter in the interpretation of in-vivo experiments. Traditionally, there are several different techniques used to determine the extent of drug binding to plasma proteins and equilibrium dialysis is probably the most common.
This method describes our current automated equilibrium dialysis assay in human plasma using the RED (Rapid Equilibrium Dialysis) Device and Hamilton sample handling system, described in WernevikJ et al. (2020) “A Fully Integrated Assay Panel for Early Drug Metabolism and Pharmacokinetics Profiling” Assay. Drug. Dev. Technol 18:157-179; DOI 10.1089/adt.2020.970.
The assay generally runs over three days including delivery of results. The pooled compounds are diluted in plasma to 5 μM and added to the inner chamber of the RED device and a phosphate buffer (pH 7.4) to the surrounding chamber to allow equilibrium dialysis over a semipermeable membrane with a molecular weight cut off at 8 kDa. The 5 μM solutions are also used to establish compound stability in plasma and recovery (mass balance) in the RED devices, with sampling performed at both the 0 and 18 h timepoints. Low recovery indicates binding to the dialysis equipment or solubility issues.
After dialysis for 18 hours, plasma and buffer samples are prepared for analysis by liquid chromatography and mass spectrometry (LC/MSMS). A seven-point calibration curve in plasma, ranging from 1.4 nM to 7 μM, is used to quantify the samples. All samples including the calibration curve, also contain an internal standard (IS) to allow for normalization between variations in injection volume in the UPLC-MS/MS instrumentation.
Three quality controls (QCs) are used in each run. Warfarin with low fu (fu mean ˜1%) is used as a control in each pool. Propranolol (˜30%) and Metoprolol (˜90%) are placed randomly in each run. The controls are monitored in the “Manhattan tool” (Winiwarter et al. (2015) “Time dependent analysis of assay comparability: a novel approach to understand intra-and inter-site variability over time” J. Comput. Aided Mol. Des. 29:795-807; DOI10.1007/s10822-015-9836-5), that defines the acceptance criteria for the QCs as 2.58×standard deviation.

In series [2] the target is T1, IRAK4 (Homo sapiens (Human), UniProt Q9NWZ3). Kind of series: IRAK4 enzyme assay (mass spectrometry readout). The note with it: human recombinant IRAK4 0.2 nM, 3 mM ATP; geometric mean of at least 2 experiments. Format: biochemical. Here is the method: Potency of IRAK4 Inhibitor Compounds in IRAK4 Enzyme Assay
The inhibitory activity of compounds against IRAK4 were determined in an enzymatic assay using mass spectrometry readout. Ten point half-log compound concentration response curves, with a top concentration of 1 μM or 10 μM, were generated from 10 mM stocks of compound solubilized in DMSO using an Echo 655 (Labcyte Inc) and added to 384 well assay plates (Greiner #781280). To the assay plates, 10 μL of human recombinant IRAK4 protein (Life Technologies #PV4002) diluted to a final concentration of 0.2 nM in assay buffer (50 mM Tris-HCl pH 7.4, 10 mM MgCl, 5 mM glutathione, 0.01% BSA, 3 mM ATP) was added. The enzyme was incubated with the compounds at room temperature for 15 minutes before a peptide substrate ([…], Innovagen custom synthesis, 10 mM in DMSO) was added to each well to a final concentration of 10 μM using an Echo 655 (Labcyte Inc). After two hours at room temperature, the reaction was stopped with 65 μL of 0.4% formic acid (Merck #33015). The unphosphorylated and phosphorylated peptide were measured by LC-MS/MS on a Waters TQ-S mass spectrometer. Peaks were integrated using the TargetLynx software and the ratios between phosphorylated and unphosphorylated peptides were calculated. Curves were fitted and compound potencies determined in Genedata Screener 19 (Genedata AG). IC50 values are the geometric mean of at least 2 experiments.

For series [3], the target named is T1, IRAK4. Kind of series: IRAK4 phosphorylation cell assay (IL-1β-stimulated Karpas-299 cells). Format: cell-based. The settings on record: IRAK4 auto-phosphorylation (pIRAK4 Thr345/Ser346) in IL-1β-stimulated Karpas-299 cells; geometric mean of at least 2 experiments. The method, then:
IRAK4 Phosphorylation Cell Assay
The activation of IRAK4 by TLR or IL-1R ligands leads to IRAK4 auto-phosphorylation, which can be prevented by IRAK4 kinase inhibitors. The effect of IRAK4 inhibitor compounds on IRAK4 auto-phosphorylation was assessed in IL-1β-stimulated Karpas-299 cells as a measurement of cellular potency. Karpas-299 cells were cultured in RPMI 1640 (Gibco 61870-010) containing 10% FBS (Gibco #10270). Cells were plated at 2×10^4 cells per well in poly-D-lysine coated 384 well plates (Corning #356663) to which compounds had been added at various concentrations (10 point half log dose response with a final top concentration of 30 μM) using an Echo 655 (Labcyte Inc). Cells were centrifuged (250 g, 4 mins), incubated at 37° C. for 1 h, then stimulated with 22.7 ng/mL recombinant IL-1β (R&D Systems, #201-LB-025) at 37° C. for 10 mins, followed by fixation in 4% paraformaldehyde for 20 mins and permeabilization in ice-cold 70% MeOH in PBS for 30 mins. Cells were washed twice with phosphate-buffered saline (PBS) on a BlueWasher (BlueCatBio) then blocked with PBS containing 10% FBS for 20 mins. Blocking solution was removed with a BlueWasher and cells were stained with anti-pIRAK4 (Thr345/Ser346) (CST, #11927, 1:400) in blocking buffer with 0.05% Tween-20 for 1 h, then washed twice with PBS containing 0.05% Tween-20 on a BlueWasher, followed by staining with a Alexa 647-conjugated secondary anti-rabbit IgG antibody (CST, #4414, 1:2,000) and Hoechst 33342 (Sigma, 1:2,000) in blocking buffer with 0.05% Tween-20 for 30 mins. Finally, the cells were washed twice with PBS containing 0.05% Tween-20 and imaged on an ImageXpress Micro (Molecular Devices) with a 10× air objective using the appropriate filters. Images were analysed in Columbus (PerkinElmer) and the fluorescence intensity per cell from the secondary antibody was quantified. The quantified data were analysed in Genedata Screener 19 (Genedata AG). […] IC50 values are the geometric mean of at least 2 experiments.

T1 sequence (Q9NWZ3 whole entry): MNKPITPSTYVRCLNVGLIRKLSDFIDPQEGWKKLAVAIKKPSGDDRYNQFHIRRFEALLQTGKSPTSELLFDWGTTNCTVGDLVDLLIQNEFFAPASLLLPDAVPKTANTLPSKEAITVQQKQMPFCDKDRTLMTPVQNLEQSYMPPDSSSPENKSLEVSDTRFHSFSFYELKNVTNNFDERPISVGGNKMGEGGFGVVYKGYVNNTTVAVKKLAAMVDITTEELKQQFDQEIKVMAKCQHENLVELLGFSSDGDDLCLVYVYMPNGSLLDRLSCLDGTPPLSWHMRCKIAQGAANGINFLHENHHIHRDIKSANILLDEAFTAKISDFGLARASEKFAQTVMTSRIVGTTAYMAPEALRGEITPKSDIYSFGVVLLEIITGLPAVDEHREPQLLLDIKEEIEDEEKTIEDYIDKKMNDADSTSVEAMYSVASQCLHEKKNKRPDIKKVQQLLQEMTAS

Regarding `CC(=O)CC(c1ccccc1)c1c(O)c2ccccc2oc1=O` (stereo not drawn) [Warfarin], the fraction unbound at 18 h, 5 μM in series [1] was around 0.01.

Regarding `CC(C)NCC(O)COc1cccc2ccccc12` (stereo not drawn) [Propranolol], the fraction unbound at 18 h, 5 μM in series [1] was around 0.3.

For `COCCc1ccc(OCC(O)CNC(C)C)cc1` (stereo not drawn) [Metoprolol], the fraction unbound at 18 h, 5 μM in series [1] is around 0.9.

For `COc1cc2nn([C@H]3CC[C@@]4(CC3)COC(=O)N4C)cc2cc1C(=O)Nc1cccn(C)c1=O` [Example 20, 6-Methoxy-N-(1-methyl-2-oxo-1,2-dihydropyridin-3-yl)-2-((5s,8s)-1-methyl-2-oxo-3-oxa-1-azaspiro[4.5]decan-8-yl)-2H-indazole-5-carboxamide], the results for the IC50 in series [2] and in series [3] were 5.6 nM and 128 nM, respectively. For the same molecule, the “Hu PPB (% free)” value in series [1] (human plasma, 5 μM, dialysis 18 hours, single experiment or average of two or more) worked out at 14 % free.
